Measured values as given in US20120004205A1, “IL-13 INDUCED GENE SIGNATURE FOR EOSINOPHILIC ESOPHAGITIS” (Cincinnati Children's Hospital Medical Center, priority 2008, published 2012).

Tests used:
TE-7 cells [1] = assay: Eotaxin-3 mRNA stability with actinomycin-D; type: cell-based, human
[2] = test system: TE-6 esophageal cell line; assay: Eotaxin-3 mRNA expression after IL-13 stimulation, real-time PCR; type: cell-based, human; details: TE-6 cells, IL-13 100 ng/mL
human eotaxin-3 promoter = assay: Eotaxin-3 promoter luciferase reporter in transfected TE-7 cells, IL-13 stimulation; type: cell-based
Protocol: (§1) Plasmids were constructed or obtained as described before Blanchard, C. et al., (2005) Int. J. Biochem Cell Biol. 37: 2559-2573. Briefly, plasmid denoted P800, P500 and P100 contained respectively the first 800 by 500 by or 100 by of the human eotaxin-3 gene promoter (pEO3) subcloned into KpnI/HindIII-digested pGL3-Basic (Promega) as previously described Blanchard, C. et al., (2005) Int. J. Biochem. Cell Biol. 37: […]. Directed mutagenesis of the eotaxin-3 promoter was performed using Quickchange Kit from Stratagene according to the manufacturer's instructions using 2 primer sets: (first set) 5′-CCCAACCACAAGAAggtacc[…]-3′ and 5′-[…] ggtacc TTCTGTGGTTGGG-3′ which include a KpnI restriction site in the -89 TTCtctcgGAA STAT6 consensus site and (second set) 5′-GTAACTTAGTTCAG ggatcc […]-3′ and 5′-[…] ggatcc CTGAACTAAGTTAC-3′ which include a […] restriction site in the -698 TTCactgGAA STAT6 consensus site. The STAT6:ER plasmid was constructed in the pCDNA3 plasmid as previously described Kamogawa, Y. et al., (1998) J. Immunol. 161:1074-1077.
Approximately 10^4 TE-7 cells per well (24 well plate) were plated on day 1 and transfected by Lipofectamine™ reagent on day 2. Briefly, […] of reporter plasmids were mixed with 3 μl of Lipofectamine™ reagent in […] of serum-free RPMI medium. In all transfection experiments, a plasmid with a Renilla luciferase reporter gene under the control of a thymidine kinase promoter (pHRL-TK, […]) was used as an internal control. In co-transfection experiments with DNSTAT6 or pCDNA3-STAT6:ER (ER-estrogen receptor) plasmids, the empty vectors pCEFL HA or pCDNA3 were added to each set of transfections, respectively, to ensure that each well received the same amount of DNA. Complete medium (0.5 mL) was added and cells were incubated for 48 h to 72 h. The transfection mixture was then replaced with fresh complete medium for an additional 12 h period before cytokine treatment. […] Cells were then lysed and the Firefly and Renilla luciferase activities were measured in a luminometor (Microlite, Dynatec Laboratories, Inc) using the Dual Luciferase Reporter assay system (Promega) in accordance with the manufacturer's instructions.
Immunol. 42: 295-303; Hoeck, J. and Woisetschlager, M., (2001) J. Immunol. 167: 3216-3222; Yuan, Q. et al., (2006) Eur. J. Immunol. 36: 2700-2714. To determine the STAT6 element or elements involved in the eotaxin-3 stimulation observed in esophageal cell lines, the TE-7 cell line was transiently transfected with the full-length eotaxin luciferase reporter plasmid and truncated versions (FIG. 3). […] The TE-7 cell line was transfected with truncated promoter constructs or with a full-length promoter containing specific mutations within the STAT6 binding sites to map the relevant cis-acting promoter sequences (FIG. 3B).

[3] = test system: TE-13 esophageal cell line; assay: Eotaxin-3 mRNA expression after IL-13 stimulation, real-time PCR; type: cell-based, human; details: TE-13 cells, IL-13 100 ng/mL
[4] = test system: primary esophageal keratinocytes from EE patients; assay: IL-13-induced eotaxin expression ex vivo, real-time PCR; type: cell-based, human
From the text: (§2) Briefly, biopsies were digested with trypsin twice.

[5] = test system: primary esophageal epithelial cells from patients with EE; assay: Global transcript-expression profile (microarray) of IL-13-stimulated primary cells; type: cell-based, human
Protocol: as §2
For each patient, one distal esophageal mucosal biopsy sample was immersed in RNA, later RNA stabilization reagent (Qiagen) and stored at 4 C. for <15 days. Total RNA was extracted using the RNAeasy Mini Kit (Qiagen) according to the manufacturer's recommendations. Hybridization to DNA microarray was performed by the MicroarrayCore at Cincinnati Children's Hospital Medical Center, as previously reported Blanchard, C. et al., (2006) J. Clin. Invest. 116: 536-547. The genome wide human Affymetrix U133A plus 2.0 Genechip® was used, and gene transcript levels were determined using algorithms in the Microarray Analysis Suite and GeneSpring software (Silicon Genetics) as previously described Blanchard, C. et al., (2006) J. Clin. Invest. 116: 536-547. […] Response to therapy was defined as <1 eosinophils/high power field (hpf) and no epithelial cell hyperplasia as described herein.
The list of differentially expressed transcripts was subjected to gene ontology analysis using DAVID (database for annotation, visualization and integrated discovery) and EASE (expression analysis systematic explorer), a web-based (hyper text transfer protocol davidabccncifcrfgov) application that allows access to a relational database of functional annotations.
Primary esophageal epithelial cells from the esophagi of patients with EE were cultured and stimulated with 100 ng/mL IL-13 for 48 hours to identify IL-13-induced esophageal epithelial genes. The mRNA was subjected to global transcript-expression profile analysis and normalized pair wise to unstimulated controls. Genes were filtered to fold change in biopsy specimens from patients with EE compared with those from healthy patients and IL-13 stimulated epithelial cells. A highly significant positive correlation (P<0.0001, Spearman) between modified genes in biopsy specimens from patients with EE and in IL-13-stimulated keratinocytes was observed (FIG. 4C). […] Blanchard, C. et al., (2006) J. Clin. Invest.

[6] = test system: TE-1 esophageal cell line; assay: Eotaxin-3 mRNA expression after IL-13 stimulation, real-time PCR; type: cell-based, human; details: TE-1 cells, IL-13 100 ng/mL
TE-7 cells [7] = assay: Eotaxin-3 protein released in culture supernatant, ELISA; type: cell-based, human; details: IL-13 100 ng/mL for 24 hours
Protocol: (§3) Eotaxin-1, 2 and 3 Duo set ELISA were performed according to the manufacturer's instruction (R&D) and as previously described Blanchard, C. et al., (2006) J. Clin. Invest. 116: 536-547. IL-13 Quantikine® Kit (R&D) was used to quantify IL-13 protein levels. The detection limits were respectively […] for eotaxins-1, -2, -3 and IL-13, respectively. The optical density of each well was read at a wavelength of 450 nm.

TE-13 cells = assay: as above; type: cell-based, human; details: IL-13 100 ng/mL for 24 hours
Protocol: as §3

[8] = test system: primary esophageal keratinocytes from EE patients; assay: Eotaxin-3 protein release into supernatant ex vivo, ELISA; type: cell-based, human; details: IL-13 100 ng/mL
Protocol: as §2, §3

[9] = test system: TE-7 esophageal cell line; assay: Eotaxin-3 mRNA expression after IL-13 stimulation, real-time PCR; type: cell-based, human; details: TE-7 cells, IL-13 100 ng/mL
STAT6:ER = assay: Eotaxin-3 promoter luciferase reporter in TE-7 cells cotransfected with STAT6:ER; type: cell-based, human; details: TE-7 cotransfected with eotaxin-3 promoter construct and STAT6:ER, within 24 hours
Protocol: as §1, with “The STAT6:ER plasmid was constructed in the pCDNA3 plasmid as previously described Kamogawa, Y. et al., (1998) J. Immunol. 161:1074-1077.” left out
Approximately 10^4 TE-7 cells per well (24 well plate) were plated on day 1 and transfected by Lipofectamine™ reagent on day 2. […] Cells were then lysed and the Firefly and Renilla luciferase activities were measured in a luminometor (Microlite, Dynatec Laboratories, Inc) using the Dual Luciferase Reporter assay system (Promega) in accordance with the manufacturer's instructions. […]

[10] = IL-13 100 ng/mL, 48 hours, P<0.05

Compound: IL-13: cytokine Interleukin 13 (Preprotech) added to culture media to stimulate esophageal cells
- stability of eotaxin-3 mRNA, IL-13 treated versus non-treated (TE-7 cells [1]): not significantly different
- Eotaxin-3 mRNA expression increase [2]: 8 fold
- increase of luciferase activity, full-length reporter plasmid (human eotaxin-3 promoter; TE-7, IL-13 10 ng/mL): 2.7+/−0.8 fold
- increase of luciferase activity, full-length reporter plasmid (human eotaxin-3 promoter; TE-7, IL-13 100 ng/mL): 10.8+/−2.2 fold
- IL-13-induced luciferase activity, construct with mutated -89 binding site (human eotaxin-3 promoter; TE-7, after IL-13 stimulation): no increase in luciferase activity
- IL-13-induced promoter activity, construct P100 (truncated proximal STAT6 site) (human eotaxin-3 promoter; TE-7, after IL-13 stimulation): no activity
- IL-13-induced promoter activity, promoter containing 800 or 500 bp (human eotaxin-3 promoter; TE-7, after IL-13 stimulation): full IL-13-induced activity
- Eotaxin-3 mRNA expression increase [3]: 1007 fold
- increase of eotaxin-3 mRNA expression ([4]; 48 hours after 10 ng/mL IL-13): 1000 fold
- increase of eotaxin-3 mRNA expression ([4]; 48 hours after 100 ng/mL IL-13): 10.000 fold
- genes downregulated by 2-fold or greater ([5]; IL-13 100 ng/mL, 48 hours): 116 genes
- genes downregulated by more than 1.5-fold ([5]; IL-13 100 ng/mL, 48 hours): 553 genes
- genes modified by 2-fold or greater ([5]; IL-13 100 ng/mL, 48 hours): 371 genes
- genes modified by more than 1.5-fold ([5]; IL-13 100 ng/mL, 48 hours): 1333 genes
- genes significantly modified compared with unstimulated cells (P<0.01) ([5]; IL-13 100 ng/mL, 48 hours): 952 genes
- genes significantly modified compared with unstimulated cells (P<0.05) ([5]; IL-13 100 ng/mL, 48 hours): 4698 genes
- genes upregulated by 2-fold or greater ([5]; IL-13 100 ng/mL, 48 hours): 255 genes
- genes upregulated by more than 1.5-fold ([5]; IL-13 100 ng/mL, 48 hours): 780 genes
- IL-13-induced genes overlapping with the EE transcriptome [5, 10]: 126 genes
- share of the EE transcriptome overlapped by IL-13-induced genes [5, 10]: 22%
- involucrin downregulation (microarray) ([5]; IL-13-stimulated cells): 4.8 fold
- TNFAIP6 expression (microarray) ([5]; IL-13-stimulated keratinocytes): highly overexpressed
- cadherin-26 upregulation (microarray) ([5]; IL-13-stimulated keratinocytes): 50 fold
- eotaxin-3 upregulation (microarray) ([5]; IL-13-stimulated keratinocytes): 279 fold
- eotaxin-1 and eotaxin-2 expression (microarray) ([5]; IL-13-treated primary keratinocyte cultures): not overexpressed
- Eotaxin-3 mRNA expression increase [6]: 4 fold
- eotaxin-3 released in the supernatant (TE-7 cells [7]): 2.5 ± 0.7 µg/mL
- eotaxin-3 released in the supernatant (TE-13 cells): 0.55 ± 0.37 µg/mL
- release of eotaxin-3 protein into the supernatant [8]: 6.03 ± 0.8 ng/mL
- Eotaxin-3 mRNA expression increase [9]: 77 fold

Compound: CC/C(=C(\c1ccc(O)cc1)c1ccc(OCCN(C)C)cc1)c1ccccc1 [4-hydroxytamoxifene]
- induction of eotaxin-3 promoter luciferase activity (STAT6:ER): significant (P<0.01) induction
